Measured values as given in patent publication US20170368119A1, “METHODS AND COMPOSITIONS FOR TREATING C-MET ASSOCIATED CANCERS” (YEASTERN BIOTECH CO., LTD, priority 2014, published 2017).

Assays:
[1] = test system: p-JNK, p-ERK, p-AKT, p-EGFR in HCC329; assay: immuno-blotting of signaling molecules, HCC329; assay type: cell-based, human
Text: To investigate the molecular mechanism of FIP-gts in suppression of tumor progression of HCCs, the effects of FIP-gts on the activity and/or quantity of the critical members present in c-Met dependent signaling pathway, including c-Met, phosphorylated c-Met (p-c-Met) and downstream effectors p-JNK and p-ERK, were examined in HCCs. […] Total proteins were harvested from the cells and subjected to immuno-blotting analysis using GAPDH as a loading control. Antibodies for p-c-Met, p-JNK, p-ERK and p-paxillin (S178), GAPDH and ERK were purchased from Santa Cruz Biotechnology (California, USA). The band intensities on the blots were quantified with Image J. Software. Relative band intensity of each molecule was calculated, taking the data of untreated HCC372 or HCC329 as 1.0.

HCC329 [2] = assay: cell proliferation assay (doubling time), HCC329; assay type: cell-based, human; conditions: 0.5, 1.0 and 2.0 μg/ml, dose dependent, 72 hours, untreated = 100%
Description: (§1) The most motile HCC cell lines identified in Example 2, namely HCC372 and HCC329, were employed for testing the molecular and cellular effects of FIP-gts on HCC, in comparison with those of JNJ-38877605 (abbreviated hereafter as JNJ), which is an ATP-competitive inhibitor for the catalytic activity of c-Met. In the cell proliferation assay, HCC329 and HCC372 cells were untreated or treated with FIP-gts (prepared in Example 4) at 0.5, 1.0 or 2.0 μg/ml for 72 hours. Cell numbers were counted, and the relative doubling times of the respective treated groups were determined by taking the data of the untreated group as 100%. The wound healing migration assay was repeated as described in Example 2, except that HCC329 and HCC372 were additionally treated with FIP-gts and JNJ (MedKoo Biosciences, Chapel Hill, N.C., USA), respectively, for 48 hours. Relative migration was analyzed quantitatively by taking the motility of untreated cells (Con) as 1.0. The results were shown in FIGS. 3A and 3B, in which the symbols (**), (*) and (#) represent statistical significance (p<0.005 and p<0.05, respectively, n=3) between the indicated inhibitor-treated samples and untreated HCC329 or HCC372 control group.

[3] = test system: HGF-induced c-Met signaling in HepG2; assay: immuno-blotting of HGF-induced c-Met signaling, HepG2; assay type: cell-based, human; conditions: 2.0 μg/ml, 0.5 hour, HGF 25 nM
Description: HepG2 cells were treated with FIP-gts (2.0 μg/ml) for 0.5 hour in the presence or absence of HGF (25 nM). Total proteins were harvested from the cells and immuno-blotting analysis was performed as described in Example 6, except using ERK as the loading control. The results were shown in FIGS. 5C and 5D, in which (**) represent statistical significance (p<0.005, n=3) between the indicated HGF/FIP-gts co-treated sample and the HGF alone group.

HCC372 [4] = assay: wound healing migration assay, HCC372; assay type: cell-based, human; conditions: FIP-gts 2.0 μg/ml, 48 hours
Description: (§2) The HCC cells were cultivated on 24-well plates accompanied with a wound healing culture insert until confluence followed by serum starvation of the cells for 24 hours and the culture insert were then removed. After appropriate treatments, pictures were taken under a phase contrast microscope at indicated times. Quantitative analysis of motility of the HCC cell lines described in Example 1 was performed by directly counting the cells migrating into the blanking area at 48 hours using Image J. Software available from the NIH website. In general, motilities of the mesenchymal HCCs were higher than those of the epithelial ones.
The most motile HCC cell lines identified in Example 2, namely HCC372 and HCC329, were employed for testing the molecular and cellular effects of FIP-gts on HCC, in comparison with those of JNJ-38877605 (abbreviated hereafter as JNJ), which is an ATP-competitive inhibitor for the catalytic activity of c-Met. In the cell proliferation assay, HCC329 and HCC372 cells were untreated or treated with FIP-gts (prepared in Example 4) at 0.5, 1.0 or 2.0 μg/ml for 72 hours. Cell numbers were counted, and the relative doubling times of the respective treated groups were determined by taking the data of the untreated group as 100%. […] Relative migration was analyzed quantitatively by taking the motility of untreated cells (Con) as 1.0. […]

HCC329 [5] = assay: HCC329 tumor development and metastasis in SCID mice model; assay type: in vivo; conditions: FIP-gts 4.0-20 μg/g mouse, intraperitoneal twice a week, 2 months
Description: HCC329 cells (approximately 2×10^7) suspended in 100 μl Dulbecco's Modified Eagle Medium (DMEM; Gibco, Grand Island, N.Y., USA) were directly injected into the subserosa of the middle liver lobe of the SCID mice, followed by intraperitoneal administration twice a week with DMEM as a vehicle, vehicle-containing FIP-gts (4.0-20 μg/g mouse) or JNJ (0.5-2.0 nmole/g mouse).
The mice were sacrificed 2 months after injection. Tumor mass was measured and the occurrence of intrahepatic metastasis and/or extrahepatic metastasis was recorded. Nodules with diameter of more than 0.1-0.2 cm observed on the left or right lobes were recognized as secondary tumor foci. […] Extra-hepatic metastasis was defined to be the case where the tumors appearing in organs other than liver such as in intestine. During the animal experiment, the regulations relevant to the care and use of laboratory animals were followed. This was approved by the Institutional Animal Care and Use Committee (IACUC) in Tzu Chi University (No. of consent form: 102080).

[6] = test system: c-Met, p-c-Met, p-JNK, p-ERK, p-AKT in HCC372; assay: immuno-blotting of c-Met dependent signaling, HCC372; assay type: cell-based, human; conditions: 2.0 μg/ml
Description: To investigate the molecular mechanism of FIP-gts in suppression of tumor progression of HCCs, the effects of FIP-gts on the activity and/or quantity of the critical members present in c-Met dependent signaling pathway, including c-Met, phosphorylated c-Met (p-c-Met) and downstream effectors p-JNK and p-ERK, were examined in HCCs. HCC329 and HCC372 cells were treated with FIP-gts (2 μg/ml) for 4 or 24 hours. Total proteins were harvested from the cells and subjected to immuno-blotting analysis using GAPDH as a loading control. Antibodies for p-c-Met, p-JNK, p-ERK and p-paxillin (S178), GAPDH and ERK were purchased from Santa Cruz Biotechnology (California, USA). The band intensities on the blots were quantified with Image J. Software. Relative band intensity of each molecule was calculated, taking the data of untreated HCC372 or HCC329 as 1.0. The results were shown in FIGS. 5A and 5B, in which (**) (##) and (*) (#) represent statistical significance (p<0.005 and p<0.05, respectively, n=3) between the indicated inhibitor-treated sample and untreated HCC329 or HCC372 control group.

[7] = toxicity test on normal SCID mice; assay type: in vivo; conditions: 20 μg/g mouse intraperitoneal, 2-3 month, data not shown
Description: In comparison, the effect of c-Met inhibitor JNJ on tumor progression of HCC329 was not prominent (FIG. 4). The toxicity test of FIP-gts on SCID mice was also performed by treating 4 normal SCID mice without inoculation of HCC329.

HepG2 = assay: wound healing migration assay, HGF-induced HepG2; assay type: cell-based, human; conditions: 25 nM HGF, FIP-gts 2.0 μg/ml versus JNJ 26.5 nM, 48 hours
Description: as §2
In a separate experiment, human hepatoma cell line HepG2, a non-motile HCC cell line conventionally used for observing HGF-inducible molecular and cellular effects, was employed. In this experiment, the wound healing migration assay described in Example 2 was again repeated, except that HepG2 (purchased from Bioresource Collection and Research Center (BCRC), Hsinchu, Taiwan) was treated with FIP-gts or JNJ-38877605 for 48 hours in the presence or absence of 25 nM HGF (PeproTech Inc., Rocky Hill, N.J., USA). Relative migration was quantitatively analyzed taking the motility of untreated cells (Con) as 1.0. […]

HCC329 [8] = assay: wound healing migration assay, HCC329; assay type: cell-based, human; conditions: FIP-gts, 48 hours
Description: The HCC cells were cultivated on 24-well plates accompanied with a wound healing culture insert until confluence followed by serum starvation of the cells for 24 hours and the culture insert were then removed. After appropriate treatments, pictures were taken under a phase contrast microscope at indicated times.
Cell numbers were counted, and the relative doubling times of the respective treated groups were determined by taking the data of the untreated group as 100%. […] Relative migration was analyzed quantitatively by taking the motility of untreated cells (Con) as 1.0.

HCC372 [9] = assay: cell proliferation assay (doubling time), HCC372; assay type: cell-based, human; conditions: 0.5, 1.0 and 2.0 μg/ml, dose dependent, 72 hours, untreated = 100%
Description: as §1

FIP-gts: fungal immunomodulatory protein of SEQ ID NO: 1 (Ganoderma tsugae), recombinantly expressed in Saccharomyces cerevisiae
decrease of phosphorylation of AKT ([1]; 2.0 μg/ml, 24 hours): 18%
decrease of phosphorylation of ERK ([1]; 2.0 μg/ml, 24 hours): 51%
decrease of phosphorylation of JNK ([1]; 2.0 μg/ml, 24 hours): 85%
phosphorylated EGFR (p-EGFR) level ([1]; 16 hours, versus untreated, data not shown): remarkably reduced
increase of doubling time (HCC329 [2]): 25-46%
suppression of HGF-induced p-ERK [3]: 85-90%
suppression of HGF-induced p-JNK [3]: 85-90%
suppression of HGF-induced p-c-Met [3]: 85-90%
suppression of HGF-induced phosphorylated paxillin (at Ser 178) [3]: 85-90%
suppression of cell migration (HCC372 [4]): 95%
secondary tumors on liver lobes (intra-hepatic metastasis) (HCC329 [5]): normal liver lobule structure
tumor progression (primary tumor growth and intra-metastasis) of HCC329 (HCC329 [5]): dramatically suppressed tumor progression
effect on p-JNK [6]: didn't decrease p-JNK at all
suppression of expression of Met protein ([6]; 4th hour): 90-95%
suppression of phosphorylation of AKT ([6]; 4th hour): 80-95%
suppression of phosphorylation of ERK ([6]; 4th hour): 80-95%
suppression of phosphorylation of Met (at Tyr1234) ([6]; 4th hour): 55%
adverse effects (activity of animals, integrity of organs) [7]: no adverse effects was observed
prevention of HGF-induced cell migration (HepG2): much more effectively than JNJ
suppression of cell migration (HCC329 [8]): 80%
increase of doubling time (HCC372 [9]): 14-47%
